ChEMBL document CHEMBL3608278 (J Med Chem, 2015)

Legend:
[1] = molecular target: T1, Potassium voltage-gated channel subfamily A member 3 (Homo sapiens, UniProt P22001); assay: cell-based; set-up: species or system Blood
[2] = molecular target: T1, Potassium voltage-gated channel subfamily A member 3; type: cell-based, CHO-K1
[3] = molecular target: T1, Potassium voltage-gated channel subfamily A member 3; set-up: species or system Blood

T1 sequence (P22001 whole entry): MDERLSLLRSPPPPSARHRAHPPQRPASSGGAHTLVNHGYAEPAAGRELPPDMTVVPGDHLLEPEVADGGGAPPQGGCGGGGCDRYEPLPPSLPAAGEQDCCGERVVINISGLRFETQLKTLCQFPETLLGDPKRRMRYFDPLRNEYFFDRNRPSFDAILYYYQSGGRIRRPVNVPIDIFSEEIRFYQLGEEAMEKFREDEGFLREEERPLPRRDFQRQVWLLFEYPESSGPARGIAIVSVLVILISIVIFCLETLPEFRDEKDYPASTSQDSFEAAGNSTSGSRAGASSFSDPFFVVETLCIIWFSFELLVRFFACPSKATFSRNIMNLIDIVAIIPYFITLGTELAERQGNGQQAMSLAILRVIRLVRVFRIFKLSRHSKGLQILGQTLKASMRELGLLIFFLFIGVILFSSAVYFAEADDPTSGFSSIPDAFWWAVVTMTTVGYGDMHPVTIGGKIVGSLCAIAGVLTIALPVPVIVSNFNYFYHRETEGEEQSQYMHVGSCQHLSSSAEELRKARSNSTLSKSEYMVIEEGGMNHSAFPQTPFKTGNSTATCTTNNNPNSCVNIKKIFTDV

SMILES	IC50 [1] [pM]	IC50 [2] [pM]	IC50 [3] [pM]
CC[C@H](C)[C@@H]1NC(=O)[C@@H](NC(=O)[C@H](CO)NC(=O)[C@H](C)N)CSSC[C@@H](C(=O)O)NC(=O)[C@H]([C@@H](C)O)NC(=O)CNC(=O)[C@@H]2CSSC[C@@H]3NC(=O)[C@H](CCC(N)=O)NC(=O)[C@H](Cc4ccccc4)NC(=O)[C@H](C)NC(=O)[C@H]([C@@H](C)O)NC(=O)[C@H](CSSC[C@H](NC(=O)[C@H](Cc4ccccc4)NC(=O)[C@H](CO)NC(=O)[C@H](CC(C)C)NC(=O)[C@H](CCCNC(=N)N)NC(=O)[C@H](Cc4ccc(O)cc4)NC(=O)[C@H](CCCCN)NC(=O)[C@H](CCSC)NC(=O)[C@H](CO)NC(=O)[C@H](Cc4cnc[nH]4)NC(=O)[C@H](CCCCN)NC3=O)C(=O)N[C@@H](CCCNC(=N)N)C(=O)N[C@@H](CCCCN)C(=O)N[C@@H]([C@@H](C)O)C(=O)N2)NC(=O)[C@H](CCCNC(=N)N)NC(=O)[C@H](CO)NC(=O)[C@H](CCCCN)NC(=O)[C@@H]2CCCN2C(=O)[C@H]([C@@H](C)CC)NC(=O)[C@H]([C@@H](C)O)NC(=O)[C@H](CC(=O)O)NC1=O	61	166	–
CC[C@H](C)[C@@H]1NC(=O)[C@@H](NC(=O)[C@H](CO)NC(=O)[C@@H](N)CCCNC(=N)N)CSSC[C@@H](C(=O)O)NC(=O)[C@H]([C@@H](C)O)NC(=O)CNC(=O)[C@@H]2CSSC[C@@H]3NC(=O)[C@H](CCC(N)=O)NC(=O)[C@H](Cc4ccccc4)NC(=O)[C@H](C)NC(=O)[C@H]([C@@H](C)O)NC(=O)[C@H](CSSC[C@H](NC(=O)[C@H](Cc4ccccc4)NC(=O)[C@H](CO)NC(=O)[C@H](CC(C)C)NC(=O)[C@H](CCCNC(=N)N)NC(=O)[C@H](Cc4ccc(O)cc4)NC(=O)[C@H](CCCCN)NC(=O)[C@H](CCSC)NC(=O)[C@H](CO)NC(=O)[C@H](Cc4cnc[nH]4)NC(=O)[C@H](CCCCN)NC3=O)C(=O)N[C@@H](CCCNC(=N)N)C(=O)N[C@@H](CCCNC(=N)N)C(=O)N[C@@H]([C@@H](C)O)C(=O)N2)NC(=O)[C@H](CCCNC(=N)N)NC(=O)[C@H](CO)NC(=O)[C@H](CCCCN)NC(=O)[C@@H]2CCCN2C(=O)[C@H]([C@@H](C)CC)NC(=O)[C@H]([C@@H](C)O)NC(=O)[C@H](CC(=O)O)NC1=O	–	38	58
CC[C@H](C)[C@@H]1NC(=O)[C@@H](NC(=O)[C@H](CO)NC(=O)[C@@H](N)CCCNC(=N)N)CSSC[C@@H](C(=O)O)NC(=O)[C@H]([C@@H](C)O)NC(=O)CNC(=O)[C@@H]2CSSC[C@@H]3NC(=O)[C@H](CCC(N)=O)NC(=O)[C@H](Cc4ccccc4)NC(=O)[C@H](C)NC(=O)[C@H]([C@@H](C)O)NC(=O)[C@H](CSSC[C@H](NC(=O)[C@H](Cc4ccccc4)NC(=O)[C@H](CO)NC(=O)[C@H](CC(C)C)NC(=O)[C@H](CCCNC(=N)N)NC(=O)[C@H](Cc4ccc(O)cc4)NC(=O)[C@H](CCCCN)NC(=O)[C@H](CCSC)NC(=O)[C@H](CO)NC(=O)[C@H](Cc4cnc[nH]4)NC(=O)[C@H](CCCCN)NC3=O)C(=O)N[C@@H](CCCNC(=N)N)C(=O)N[C@@H](CCCCN)C(=O)N[C@@H]([C@@H](C)O)C(=O)N2)NC(=O)[C@H](CCCNC(=N)N)NC(=O)[C@H](CO)NC(=O)[C@H](CCCCN)NC(=O)[C@@H]2CCCN2C(=O)[C@H](CCCCN)NC(=O)[C@H]([C@@H](C)O)NC(=O)[C@H](CC(=O)O)NC1=O	4670	561	13500
CC[C@H](C)[C@@H]1NC(=O)[C@@H](NC(=O)[C@H](CO)NC(=O)[C@@H](N)CCCNC(=N)N)CSSC[C@@H](C(=O)O)NC(=O)[C@H]([C@@H](C)O)NC(=O)CNC(=O)[C@@H]2CSSC[C@@H]3NC(=O)[C@H](CCC(N)=O)NC(=O)[C@H](Cc4ccccc4)NC(=O)[C@H](C)NC(=O)[C@H]([C@@H](C)O)NC(=O)[C@H](CSSC[C@H](NC(=O)[C@H](Cc4ccccc4)NC(=O)[C@H](CO)NC(=O)[C@H](CC(C)C)NC(=O)[C@H](CCCNC(=N)N)NC(=O)[C@H](Cc4ccc(O)cc4)NC(=O)[C@H](CCCCN)NC(=O)[C@H](CCSC)NC(=O)[C@H](CO)NC(=O)[C@H](Cc4cnc[nH]4)NC(=O)[C@H](CCCCN)NC3=O)C(=O)N[C@@H](CCCNC(=N)N)C(=O)N[C@@H](CCCCN)C(=O)N[C@@H]([C@@H](C)O)C(=O)N2)NC(=O)[C@H](CCCNC(=N)N)NC(=O)[C@H](CCCCN)NC(=O)[C@H](CCCCN)NC(=O)[C@@H]2CCCN2C(=O)[C@H]([C@@H](C)CC)NC(=O)[C@H]([C@@H](C)O)NC(=O)[C@H](CC(=O)O)NC1=O	52	184	82
CC[C@H](C)[C@@H]1NC(=O)[C@@H](NC(=O)[C@H](CO)NC(=O)[C@@H](N)CCCNC(=N)N)CSSC[C@@H](C(=O)O)NC(=O)[C@H]([C@@H](C)O)NC(=O)CNC(=O)[C@@H]2CSSC[C@@H]3NC(=O)[C@H](CCC(N)=O)NC(=O)[C@H](Cc4ccccc4)NC(=O)[C@H](C)NC(=O)[C@H](CCCCN)NC(=O)[C@H](CSSC[C@H](NC(=O)[C@H](Cc4ccccc4)NC(=O)[C@H](CO)NC(=O)[C@H](CC(C)C)NC(=O)[C@H](CCCNC(=N)N)NC(=O)[C@H](Cc4ccc(O)cc4)NC(=O)[C@H](CCCCN)NC(=O)[C@H](CCSC)NC(=O)[C@H](CO)NC(=O)[C@H](Cc4cnc[nH]4)NC(=O)[C@H](CCCCN)NC3=O)C(=O)N[C@@H](CCCNC(=N)N)C(=O)N[C@@H](CCCCN)C(=O)N[C@@H]([C@@H](C)O)C(=O)N2)NC(=O)[C@H](CCCNC(=N)N)NC(=O)[C@H](CO)NC(=O)[C@H](CCCCN)NC(=O)[C@@H]2CCCN2C(=O)[C@H]([C@@H](C)CC)NC(=O)[C@H]([C@@H](C)O)NC(=O)[C@H](CC(=O)O)NC1=O	257	154	363
CC[C@H](C)[C@@H]1NC(=O)[C@@H](NC(=O)[C@H](CO)NC(=O)[C@@H](N)CCCNC(=N)N)CSSC[C@@H](C(=O)O)NC(=O)[C@H]([C@@H](C)O)NC(=O)CNC(=O)[C@@H]2CSSC[C@@H]3NC(=O)[C@H](CCC(N)=O)NC(=O)[C@H](Cc4ccccc4)NC(=O)[C@H](C)NC(=O)[C@H]([C@@H](C)O)NC(=O)[C@H](CSSC[C@H](NC(=O)[C@H](Cc4ccccc4)NC(=O)[C@H](CO)NC(=O)[C@H](CC(C)C)NC(=O)[C@H](CCCNC(=N)N)NC(=O)[C@H](Cc4ccc(O)cc4)NC(=O)[C@H](CCCCN)NC(=O)[C@H](CCSC)NC(=O)[C@H](CO)NC(=O)[C@H](Cc4cnc[nH]4)NC(=O)[C@H](CCCCN)NC3=O)C(=O)N[C@@H](CCCNC(=N)N)C(=O)N[C@@H](CCCCN)C(=O)N[C@@H]([C@@H](C)O)C(=O)N2)NC(=O)[C@H](CCCNC(=N)N)NC(=O)[C@H](Cc2cccc3ccccc23)NC(=O)[C@H](CCCCN)NC(=O)[C@@H]2CCCN2C(=O)[C@H]([C@@H](C)CC)NC(=O)[C@H]([C@@H](C)O)NC(=O)[C@H](CC(=O)O)NC1=O	–	216	255
